Assay results as given in US8163724B2, “Glucocorticosteroids, processes for their preparation, pharmaceutical compositions containing them and their use in therapy” (AstraZeneca AB, priority 2007, dated 2012).

These compounds were tested against T1, recombinant human GR (Homo sapiens, UniProt P04150) (assay: Human Glucocorticoid Receptor (GR) Assay (fluorescence polarization, Panvera/Invitrogen kit)). Details: fluorescence polarization; GS Red tracer; 2 hours at room temperature; 100% control 10 μM Dexamethasone; read-out: Inhibition of GR binding, IC50.
T1 construct: purchased Panvera/Invitrogen P2812 (kit P2893)
T1 sequence (P04150 1-777): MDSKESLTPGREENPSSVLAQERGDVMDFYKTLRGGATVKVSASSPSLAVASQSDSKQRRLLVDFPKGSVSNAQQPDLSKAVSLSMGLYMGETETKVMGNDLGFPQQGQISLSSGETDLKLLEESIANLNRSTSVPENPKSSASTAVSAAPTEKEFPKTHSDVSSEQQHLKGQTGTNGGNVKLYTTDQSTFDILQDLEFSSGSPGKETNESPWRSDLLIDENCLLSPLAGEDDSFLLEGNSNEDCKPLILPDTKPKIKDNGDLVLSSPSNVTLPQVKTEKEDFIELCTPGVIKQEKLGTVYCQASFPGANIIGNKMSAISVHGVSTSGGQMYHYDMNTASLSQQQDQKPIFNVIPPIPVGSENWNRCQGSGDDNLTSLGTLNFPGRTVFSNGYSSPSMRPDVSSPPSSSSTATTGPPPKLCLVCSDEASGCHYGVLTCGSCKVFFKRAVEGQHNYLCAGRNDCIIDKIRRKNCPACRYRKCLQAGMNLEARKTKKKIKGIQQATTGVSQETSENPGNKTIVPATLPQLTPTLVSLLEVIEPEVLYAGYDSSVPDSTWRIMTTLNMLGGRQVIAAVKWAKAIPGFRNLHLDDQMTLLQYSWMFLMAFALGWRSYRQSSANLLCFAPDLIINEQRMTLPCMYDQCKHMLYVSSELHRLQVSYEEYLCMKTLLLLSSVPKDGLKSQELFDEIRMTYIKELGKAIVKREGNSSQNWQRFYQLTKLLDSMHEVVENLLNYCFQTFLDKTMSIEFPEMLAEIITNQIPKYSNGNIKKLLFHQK
Type: binding
Method in brief: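 Fluorescence polarization competition with recombinant GR and GS Red fluorescent ligand plus stabilizing peptide and DTT in potassium phosphate/sodium molybdate/EDTA buffer with DMSO. Incubated 2 hours at room temperature in the dark; 0% control DMSO, 100% control 10 μM dexamethasone.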

**Q.** How did the IC50 turn out when `Cc1ccoc1C(=O)O[C@]1(C(=O)SCC#N)CC[C@H]2[C@@H]3CCC4=Cc5c(cnn5-c5ccc(F)cc5)C[C@]4(C)[C@H]3[C@@H](O)C[C@@]21C` [Example 56, (1R,3aS,3bS,10aR,10bS,11S,12aS)-1-{[(Cyanomethyl)thio]carbonyl}-7-(4-fluorophenyl)-11-hydroxy-10a,12a-dimethyl-1,2,3,3a,3b,4,5,7,10,10a,10b,11,12,12a-tetradecahydropcyclopenta[5,6]naphtho[1,2-f]indazol-1-yl 3-methylfuran-2-carboxylate] was run?
**A.** The IC50 was 6.5 nM.

**Q.** Which IC50 does the source give for `Cc1ccoc1C(=O)O[C@]1(C(=O)SCF)CC[C@H]2[C@@H]3CCC4=Cc5c(cnn5-c5ccc(F)cc5)C[C@]4(C)[C@H]3[C@@H](O)C[C@@]21C` [Example 57, (1R,3aS,3bS,10aR,10bS,11S,12aS)-1-{[(Fluoromethyl)thio]carbonyl}-7-(4-fluorophenyl)-11-hydroxy-10a,12a-dimethyl-1,2,3,3a,3b,4,5,7,10,10a,10b,11,12,12a-tetradecaphydrocyclopenta[5,6]naphtho[1,2-f]indazol-1-yl 3-methylfuran-2-carboxylate] here?
**A.** Its IC50 is 3.8 nM.

**Q.** Which IC50 does the source give for `Cc1ccoc1C(=O)O[C@]1(C(=O)SCCO)CC[C@H]2[C@@H]3CCC4=Cc5c(cnn5-c5ccc(F)cc5)C[C@]4(C)[C@H]3[C@@H](O)C[C@@]21C` [Example 58, (1R,3aS,3bS,10aR,10bS,11S,12aS)-7-(4-Fluorophenyl)-11-hydroxy-1-{[(2-hydroxy-ethyl)thio]carbonyl}-10a,12a-dimethyl-1,2,3,3a,3b,4,5,7,10,10a,10b,11,12,12a-tetradecahydrocyclopenta[5,6]naphtho[1,2-f]indazol-1-yl 3-methylfuran-2-carboxylate] here?
**A.** The IC50 was 5.5 nM.

**Q.** `C[C@]12Cc3cnn(-c4ccc(F)cc4)c3C=C1CC[C@@H]1[C@@H]2[C@@H](O)C[C@@]2(C)[C@H]1CC[C@]2(OC(=O)c1ccno1)C(=O)SCC#N` [Example 59, (1R,3aS,3bS,10aR,10bS,11S,12aS)-1-{[(Cyanomethyl)thio]carbonyl}-7-(4-fluorophenyl)-11-hydroxy-10a,12a-dimethyl-1,2,3,3a,3b,4,5,7,10,10a,10b,11,12,12a-tetradecahydropcyclopenta[5,6]naphtho[1,2-f]indazol-1-yl isoxazole-5-carboxylate] was tested. Which IC50 did it give?
**A.** The IC50 was 3.9 nM.

**Q.** With `C[C@]12Cc3cnn(-c4ccc(F)cc4)c3C=C1CC[C@@H]1[C@@H]2[C@@H](O)C[C@@]2(C)[C@H]1CC[C@]2(OC(=O)c1ccno1)C(=O)SCF` [Example 60, (1R,3aS,3bS,10aR,10bS,11S,12aS)-1-{[(Fluoromethyl)thio]carbonyl}-7-(4-fluorophenyl)-11-hydroxy-10a,12a-dimethyl-1,2,3,3a,3b,4,5,7,10,10a,10b,11,12,12a-tetradecahydropcyclopenta[5,6]naphtho[1,2]-indazol-1-yl isoxazole-5-carboxylate] as the compound, how does the IC50 read?
**A.** Its IC50 is 4.5 nM.

**Q.** How did the IC50 turn out when `C[C@]12Cc3cnn(-c4ccc(F)cc4)c3C=C1CC[C@@H]1[C@@H]2[C@@H](O)C[C@@]2(C)[C@H]1CC[C@]2(OC(=O)c1ccno1)C(=O)SCCO` [Example 61, (1R,3aS,3bS,10aR,10bS,11S,12aS)-7-(4-Fluorophenyl)-11-hydroxy-1-{[(2-hydroxy-ethyl)thio]carbonyl}-10a,12a-dimethyl-1,2,3,3a,3b,4,5,7,10,10a,10b. 1,12,12a-tetradecahydrocyclopenta[5,6]naphtho[1,2-f]indazol-1-yl isoxazole-5-carboxylate] was run?
**A.** The IC50 was 8.3 nM.

**Q.** Which IC50 does the source give for `COCCC(=O)O[C@]1(C(=O)SCC#N)CC[C@H]2[C@@H]3CCC4=Cc5c(cnn5-c5ccc(F)cc5)C[C@]4(C)[C@H]3[C@@H](O)C[C@@]21C` [Example 62, (1R,3aS,3bS,10aR,10bS,11S,12aS)-1-{[(Cyanomethyl)thio]carbonyl}-7-(4-fluorophenyl)-11-hydroxy-10a,12a-dimethyl-1,2,3,3a,3b,4,5,7,10,10a,10b,11,12,12a-tetradecahydrocyclopenta[5,6]naphtho[1,2-f]indazol-1-yl 3-methoxypropanoate] here?
**A.** Its IC50 is 2.2 nM.

**Q.** `COCCC(=O)O[C@]1(C(=O)SCF)CC[C@H]2[C@@H]3CCC4=Cc5c(cnn5-c5ccc(F)cc5)C[C@]4(C)[C@H]3[C@@H](O)C[C@@]21C` [Example 63, (1R,3aS,3bS,10aR,10bS,11S,12aS)-1-{[(Fluoromethyl)thio]carbonyl}-7-(4-fluorophenyl)-11-hydroxy-10a,12a-dimethyl-1,2,3,3a,3b,4,5,7,10,10a,10b,11,12,12a-tetradecahydropcyclopenta[5,6]naphtho[1,2-f]indazol-1-yl 3-methoxypropanoate] was tested. Which IC50 did it give?
**A.** Its IC50 is 3.3 nM.

**Q.** Which IC50 does the source give for `CSC(=O)[C@@]1(OC(=O)c2ccco2)CC[C@H]2[C@@H]3CCC4=Cc5c(cnn5-c5ccc(F)cc5)C[C@]4(C)[C@H]3[C@@H](O)C[C@@]21C` [Example 64, (1R,3aS,3bS,10aR,10bS,11S,12aS)-7-(4-Fluorophenyl)-11-hydroxy-10a,12a-dimethyl-1-[(methylthio)carbonyl]-1,2,3,3a,3b,4,5,7,10,10a,10b,11,12,12a-tetradecahydropcyclopenta[5,6]naphtho[1,2-f]indazol-1-yl furan-2-carboxylate] here?
**A.** Its IC50 is 5.8 nM.

**Q.** Which IC50 does the source give for `C[C@]12Cc3cnn(-c4ccc(F)cc4)c3C=C1CC[C@@H]1[C@@H]2[C@@H](O)C[C@@]2(C)[C@H]1CC[C@]2(OC(=O)c1ccco1)C(=O)OCC#N` [Example 65, Cyanomethyl(1R,3aS,3bS,10aR,10bS,11S,12aS)-7-(4-fluorophenyl)-1-[(furan-2-ylcarbonyl)oxy]-11-hydroxy-10a,12a-dimethyl-1,2,3,3a,3b,4,5,7,10,10a,10b,11,12,12a-tetradecahydrocyclopenta[5,6]naphtho[1,2-f]indazole-1-carboxylate] here?
**A.** Its IC50 is 2.6 nM.

**Q.** With `COC(=O)[C@@]1(OC(=O)c2ccco2)CC[C@H]2[C@@H]3CCC4=Cc5c(cnn5-c5ccc(F)cc5)C[C@]4(C)[C@H]3[C@@H](O)C[C@@]21C` [Example 66, Methyl (1R,3aS,3bS,10aR,10bS,11S,12aS)-7-(4-fluorophenyl)-1-[(furan-2-yl-carbonyl)oxy]-11-hydroxy-10a,12a-dimethyl-1,2,3,3a,3b,4,5,7,10,10a,10b,11,12,12a-tetradecahydrocyclopenta[5,6]naphtho[1,2-f]indazole-1-carboxylate] as the compound, how does the IC50 read?
**A.** Its IC50 is 3.3 nM.

**Q.** For `CCOC(=O)O[C@]1(C(=O)SCC#N)CC[C@H]2[C@@H]3CCC4=Cc5c(cnn5-c5ccc(F)cc5)C[C@]4(C)[C@H]3[C@@H](O)C[C@@]21C` [Example 67, S-(Cyanomethyl)(1R,3aS,3bS,10aR,10bS,11S,12aS)-1-[(ethoxycarbonyl)oxy]-7-(4-fluorophenyl)-11-hydroxy-10a,12a-dimethyl-1,2,3,3a,3b,4,5,7,10,10a,10b,11,12,12a-tetradecahydrocyclopenta[5,6]naphtho[1,2-f]indazole-1-carbothioate], which IC50 is on record?
**A.** The IC50 was 38 nM.

**Q.** With `CC(C)OC(=O)O[C@]1(C(=O)SCC#N)CC[C@H]2[C@@H]3CCC4=Cc5c(cnn5-c5ccc(F)cc5)C[C@]4(C)[C@H]3[C@@H](O)C[C@@]21C` [Example 68, S-(Cyanomethyl)(1R,3aS,3bS,10aR,10bS,11S,12aS)-7-(4-fluorophenyl)-11-hydroxy-10a,12a-dimethyl-1-{[(1-methylethoxy)carbonyl]oxy}-1,2,3,3a,3b,4,5,7,10,10a,10b,11,12,12a-tetradecahydrocyclopenta[5,6]naphtho[1,2-f]indazole-1-carbothioate] as the compound, how does the IC50 read?
**A.** The IC50 was 12 nM.

**Q.** With `CNC(=O)[C@@]1(OC(=O)c2ccco2)CC[C@H]2[C@@H]3CCC4=Cc5c(cnn5-c5ccc(F)cc5)C[C@]4(C)[C@H]3[C@@H](O)C[C@@]21C` [Example 69, (1R,3aS,3bS,10aR,10bS,11S,12aS)-7-(4-Fluorophenyl)-11-hydroxy-10a,12a-dimethyl-1-(methylcarbamoyl)-1,2,3,3a,3b,4,5,7,10,10a,10b,11,12,12a-tetradecahydropcyclopenta[5,6]naphtho[1,2-f]indazol-1-yl furan-2-carboxylate] as the compound, how does the IC50 read?
**A.** The IC50 was 3 nM.

**Q.** How did the IC50 turn out when `CNC(=O)[C@@]1(O)CC[C@H]2[C@@H]3CCC4=Cc5c(cnn5-c5ccc(F)cc5)C[C@]4(C)[C@H]3[C@@H](O)C[C@@]21C` [Example 70, (1R,3aS,3bS,10aR,10bS,11S,12aS)-7-(4-Fluorophenyl)-1,11-dihydroxy-N,10a,12a-trimethyl-1,2,3,3a,3b,4,5,7,10,10a,10b,11,12,12a-tetradecahydrocyclopenta[5,6]naphtho[1,2-f]indazole-1-carboxamide] was run?
**A.** Its IC50 is 3.8 nM.
